Experiments:
[1] = Toxicity (LD50), intraperitoneal administration, mongrel white mice, Burns method; type: in vivo, mouse; conditions: mice; for less toxic than 5-fluorouracyl, fold: relative to 5-fluorouracyl; for LD50: mouse, in vivo, ip, intraperitoneal, I, II, III as emulsion in 10% aqueous Tween-80, IV, Ftorafur, 5-fluorouracyl as aqueous solutions
Source text: Toxicity of the compounds according to the present invention has been determined on mongrel white mice in experimental intraperitoneal administration of these compounds and evaluated by the Burns method (using curves of accumulation of the animal death frequencies vs. dose).
As the toxicity characteristic use was made of the dose causing death of 50% of the animals employed for the experiment (LD50).
For the determination of toxicity of (1,3-bis-(2,2,5,5-tetramethyl-1-oxyl-Δ^3 -pyrrolin-3-oyl)-5-fluorouracyl(compound I), 1-(2,2,5,5-tetramethyl-1-oxyl-Δ^3 -pyrrolin-3-oyl)-5-fluorouracyl (compound II) and 3-(2,2,5,5-tetramethyl-1-oxyl-Δ^3 -pyrrolin-3-oyl)-5-fluorouracyl (compound III), these compounds were administered intraperitoneally in the form of an emulsion in a 10% aqueous solution of polyoxyethylsorbitan monooleate (Tween-80, Ferak Berlin West Germany).
For the determination of toxicity of sodium salt of 3-(2,2,5,5-tetramethyl-1-oxyl-Δ^3 -pyrrolin-3-oyl)-5-fluorouracyl (compound IV), Ftorafur and 5-fluorouracyl, these compounds were also administered intraperitoneally in the form of aqueous solutions.

[2] = test system: melanoma B-16; assay: Antitumor activity on grafted melanoma B-16 in mice (inhibition of tumor volume gain); type: in vivo, mouse; conditions: for Inhibition of tumor volume gain: B-16, CBAF1 mice, days 1-10
Source text: (§1) For the determination of antitumor activity these compounds (I, II, III, IV), 5-fluorouracyl and Ftorafur were used in the same solvents as in the determination of toxicity.
(§2) The determination of antitumor activity was effected on grafted tumors of mice: leukemia L-1210, leukemia P-388, Leukemia La, melanoma B-16, adenocarcinoma 755 (Ca-755), as well as on grafted tumors of rats: Schwetz erythroleukosis, Walker carcinosarcoma (WCS), Geren carcinoma.
(§3) In the determination of the antitumor activity the test compounds were introduced in equitoxic doses. Ftorafur was also used in the optimal dose which is equal to […].
(§4) As the criterion of antitumor activity on solid tumors used is the inhibition (I) of the tumor volume gain in comparison with the control, expressed in percent and calculated by the formula: [formula] wherein Vc --average volume of the tumor in the control,
(§5) Vt --average volume of the tumor in the experiment.

[3] = Solubility; type: physicochemical; conditions: for solubility in organic solvents: alcohols, acetone, acetonitrile, dimethylformamide, dimethylsulphoxide; for solubility in aqueous alkalis or buffer solutions: pH above 10
[4] = test system: leukemia La; assay: Antitumor activity on grafted leukemia La in mice (ELS, kinetic criterion, chemotherapeutic index); type: in vivo, mouse; conditions: for Chemotherapeutic index I40 = LD10/ED40 / kinetic criterion (.chi.) = 1-.phi.t/.phi.c / ELS (extension of average life span): La, C57Bl mice; for Chemotherapeutic index I40 = LD10/ED40: i/p
Source text: as §1, §2
Leukemia La was grafted intraperitoneally using a suspension of leukemic cells in a physiological solution. The inoculum contained 10^8 of leukemia cells. […]
In the determination of the antitumor activity the test compounds were introduced in equitoxic doses.
The criterion of the antitumor activity for leukemia P-338, L-1210 and La is the extension of an average life span (ELS) of the test animals as compared to the control ones, expressed in percent and calculated by the formula: [formula] wherein Lt --life span of animals in the test group;
Lc --life span of animals in the control group, i.e. without administration of the test compounds.
The comparative assessment of the scope of therapeutic action is effected using chemotherapeutic indices I40, I60 and I100 : I40 =LD10 /ED40, I60 =LD10 /ED60 I100 =LD10 /ED100, where LD10 =dose causing death of 10% of the animals; ED40, ED60 and ED100 are effective doses causing extension of the animal's life span by 40, 60 and 100 percent respectively.

[5] = Stability against hydrolysis; type: physicochemical
[6] = background art; cited from earlier work
[7] = test system: Schwetz erythroleukosis; assay: Antitumor activity on grafted Schwetz erythroleukosis in rats; type: in vivo, rat; conditions: mongrel rats, single dose 25 mg/kg i/p, days 7-14
Source text: as §1, §2, §3, §4, §5

[8] = single dose 75 mg/kg i/p, days 1-7 after grafting
[9] = single dose 75 mg/kg i/p, days 1-7 after grafting, control life span 6,5 days
[10] = leukemia La, relative to Ftorafur

Compound | less toxic than 5-fluorouracyl, fold ([1]; i/p) | LD50 [1] | solubility in organic solvents [3] | solubility in water [3] | Chemotherapeutic index I40 = LD10/ED40 ([4]; days 1-7) | kinetic criterion (.chi.) = 1-.phi.t/.phi.c [4, 8] | ELS (extension of average life span) [4, 9] | kinetic criterion compared with Ftorafur, in words ([4]; leukemia La) | therapeutic effect compared with 5-fluorouracyl, in words ([4]; leukemia La) | effectiveness relative to Ftorafur as regards ELS, fold [4, 10] | solubility in aqueous alkalis or buffer solutions [3] | also measured
CC1(C)C=C(C(=O)n2cc(F)c(=O)n(C(=O)C3=CC(C)(C)N([O])C3(C)C)c2=O)C(C)(C)N1[O] [I, 1,3-bis-(2,2,5,5-tetramethyl-1-oxyl-Δ^3-pyrrolin-3-oyl)-5-fluorouracyl] | 3.5 times | 350 mg/kg | wellsoluble | sparingly soluble in water | 4,0 | 0,1 | 30% | close values | close to 5-fluorouracyl | 2 times | – | Inhibition of tumor volume gain ([2]; single dose 75 mg/kg i/p): 15%
CC1(C)C=C(C(=O)n2cc(F)c(=O)[nH]c2=O)C(C)(C)N1[O] [II, 1-(2,2,5,5-tetramethyl-1-oxyl-Δ^3 pyrrolin-3-oyl)-5-fluorouracyl] | – | 150 mg/kg | wellsoluble | sparingly soluble in water | 2,0 | 0.5 | 45% | – | similar, in these characteristics, to 5-fluorouracyl | 3 times | well soluble | hydrolysis in aqueous solutions of alkalis ([5]; to fluorouracyl and 2,2,5,5-tetramethyl-1-oxyl-Δ^3 -pyrrolin-3-carboxylic acid, rate increases with increasing pH): rapidly hydrolyzed; toxicity compared with 5-fluorouracyl, in words ([1]; i/p): substantially similar to that of 5-fluorouracyl; effectiveness relative to Ftorafur as regards kinetic criterion, fold [4, 10]: 3 times
CC1(C)C=C(C(=O)n2c(=O)[nH]cc(F)c2=O)C(C)(C)N1[O] [III, 3-(2,2,5,5-tetramethyl-1-oxyl-Δ^3-pyrrolin-3-oyl)-5-fluororacyl] | 5 times | 550 mg/kg | wellsoluble | sparingly soluble in water | 7,8 | – | – | close values | close to 5-fluorouracyl | 2 times | well soluble | stability against hydrolysis ([5]; room temperature, pH 3 to 11, about 5 hours): do not undergo any noticeable hydrolytical decomposition; toxicity compared with Ftorafur, in words ([1]; i/p): approach toxicity of Ftorafur; kinetic criterion (.chi.) = 1-.phi.t/.phi.c ([4]; single dose 65 mg/kg i/p, days 1-7): 0,2; ELS (extension of average life span) ([4]; single dose 65 mg/kg i/p, days 1-7, control life span 6,5 days): 40%
O=c1[nH]cc(F)c(=O)[nH]1 [5-fluorouracyl, reference compound] | – | 100 mg/kg | – | – | – | – | – | – | – | – | – | toxicity / side effects in words [6]: highly toxic, it strongly affects the function of bone marrow and gastro-intestinal tract; Inhibition of tumor volume gain ([2]; single dose 25 mg/kg i/p): 0%; activity on melanoma B-16, in words ([2]; mouse, in vivo): shows no activity; Inhibition of tumor volume gain [7]: 15%; ELS (extension of average life span) ([4]; single dose 25 mg/kg i/p, days 1-7, control life span 6.5 days): 57%; kinetic criterion (.chi.) = 1-.phi.t/.phi.c ([4]; single dose 35 mg/kg i/p, days 1,3,5,7): 0.67; ELS (extension of average life span) ([4]; single dose 35 mg/kg i/p, days 1,3,5,7, control life span 6,5 days): 57%; Chemotherapeutic index I60 = LD10/ED60 ([4]; mouse, in vivo, ip): 3.6

Reference: patent US4558127A, “5-Fluorouracil nitroxyl derivatives possessing antitumor activity” (priority 1984, dated 1985)
